Reference: patent US5292742A, “Angiotensin II receptor blocking 2,3,6 substituted quinazolinones” (American Cyanamid Company, priority 1993, dated 1994)
Values joined by “and” are separate entries in the source; they are usually repeats but may differ in a detail not shown here. Equal entries are not always repeated.

Tested on: angiotensin II (AII) vasopressor response
Assay: AII challenge: inhibition of angiotensin II vasopressor response in conscious spontaneously hypertensive rats
Assay type: in vivo, rat (Okamoto-Aoki SHR)
Settings: 3 mg/kg IV; for % Inhibition (angiotensin blockage) of AII vasopressor response / Average Change (increase in systolic blood pressure after AII): SHR n = 2; for Change (increase in systolic blood pressure after AII), individual rat / Response After AII (systolic blood pressure), individual rat / Control Before AII (systolic blood pressure), individual rat: individual SHR
Text: By administering a compound of this invention to a rat, and then challenging with angiotensin II, a blockage of the vasopressor response is realized.
Conscious Male Okamoto-Aoki SHR, 16-20 weeks old, weighing approximately 330 g are purchased from Charles River Labs (Wilmington, Mass.). Conscious rats are restrained in a supine position with elastic tape. The area at the base of the tail is locally anesthetized by subcutaneous infiltration with 2% procaine. The ventral caudal artery and vein are isolated, and a cannula made of polyethylene (PE) 10-20 tubing (fused together by heat) is passed into the lower abdominal aorta and vena cava, respectively. The cannula is secured, heparinized (1,000 I.U./ml), sealed and the wound is closed. The animals are placed in plastio restraininq cages in an upright position. The cannula is attached to a Statham P23Db pressure transducer, and pulsatile blood pressure is recorded to 10-15 minutes with a Gould Brush recorder. (Chan et al., (Drug Development Res., 18:75-94, 1989).
Angiotensin II (human sequence, Sigma Chem. Co., St. Louis, Mo.) of 0.05 and 0.1 mcg/kg i.v. is injected into all rats (predosing response). Then a test compound, vehicle or a known angiotensin II antagonist is administered i.v., i.p. or orally to each set of rats. The two doses of angiotensin II are given to each rat again at 30, 60, 90, 120, 180, 240 and 300 minutes post dosing the compound or vehicle. The vasopressor response of angiotensin II is measured for the increase in systolic blood pressure in mmHg. The percentage of antagonism or blockade of the vasopressor response of angiotensin II by a compound is calculated using the vasopressor response (increase in systolic blood pressure) of angiotensin II of each rat predosing the compound as 100%. A compound is considered active if at 30 mg/kg i.v. it antagonized at least 50% of the response.

[1] = AII 0.05 mcg/kg IV, 30 min post dose
[2] = AII 0.05 mcg/kg IV, 60 min post dose
[3] = AII 0.05 mcg/kg IV, 90 min post dose
[4] = AII 0.05 mcg/kg IV, 120 min post dose
[5] = AII 0.05 mcg/kg IV, 180 min post dose
[6] = AII 0.05 mcg/kg IV, 240 min post dose
[7] = AII 0.05 mcg/kg IV, 300 min post dose
[8] = AII 0.1 mcg/kg IV, 30 min post dose
[9] = AII 0.1 mcg/kg IV, 60 min post dose
[10] = AII 0.1 mcg/kg IV, 90 min post dose
[11] = AII 0.1 mcg/kg IV, 120 min post dose
[12] = AII 0.1 mcg/kg IV, 180 min post dose
[13] = AII 0.1 mcg/kg IV, 240 min post dose
[14] = AII 0.1 mcg/kg IV, 300 min post dose

**Q.** With `CCCCc1nc2ccc(C3=NN4CCCCC4C3)cc2c(=O)n1Cc1ccc(-c2ccccc2-c2nnn[nH]2)cc1` (stereo not shown) [Example 11] as the molecule, how does the “% Inhibition (angiotensin blockage) of AII vasopressor response” value (shortened to “% Inhibition (angiotensin blockage)”) [1] read?
**A.** The value was 82%.

**Q.** What about the “Average Change (increase in systolic blood pressure after AII)” value [1] of the same molecule?
**A.** Its value is 7.5 mmHg.

**Q.** And the “Change (increase in systolic blood pressure after AII), individual rat” value [1]?
**A.** Its value is 10 mmHg and 5 mmHg.

**Q.** What about the “% Inhibition (angiotensin blockage)” value [2] of the same molecule?
**A.** The value was 59%.

**Q.** What about the “Average Change (increase in systolic blood pressure after AII)” value [2] of the same molecule?
**A.** Its value is 17.5 mmHg.

**Q.** What about the “Change (increase in systolic blood pressure after AII), individual rat” value [2] of the same molecule?
**A.** The value was 20 mmHg and 15 mmHg.

**Q.** What about the “% Inhibition (angiotensin blockage)” value [3] of the same molecule?
**A.** The value was 65%.

**Q.** And the “Average Change (increase in systolic blood pressure after AII)” value [3]?
**A.** The value was 15 mmHg.

**Q.** What about the “Change (increase in systolic blood pressure after AII), individual rat” value [3] of the same molecule?
**A.** Its value is 15 mmHg.

**Q.** And the “% Inhibition (angiotensin blockage)” value [4]?
**A.** Its value is 59%.

**Q.** And the “Average Change (increase in systolic blood pressure after AII)” value [4]?
**A.** The value was 17.5 mmHg.

**Q.** What about the “Change (increase in systolic blood pressure after AII), individual rat” value [4] of the same molecule?
**A.** The value was 20 mmHg and 15 mmHg.

**Q.** And the “% Inhibition (angiotensin blockage)” value [5]?
**A.** Its value is 59%.

**Q.** And the “Average Change (increase in systolic blood pressure after AII)” value [5]?
**A.** Its value is 17.5 mmHg.

**Q.** What about the “Change (increase in systolic blood pressure after AII), individual rat” value [5] of the same molecule?
**A.** The value was 20 mmHg and 15 mmHg.

**Q.** What about the “% Inhibition (angiotensin blockage)” value [6] of the same molecule?
**A.** Its value is 53%.

**Q.** And the “Average Change (increase in systolic blood pressure after AII)” value [6]?
**A.** The value was 20 mmHg.

**Q.** And the “Change (increase in systolic blood pressure after AII), individual rat” value [6]?
**A.** The value was 25 mmHg and 15 mmHg.

**Q.** And the “% Inhibition (angiotensin blockage)” value [7]?
**A.** The value was 41%.

**Q.** And the “Average Change (increase in systolic blood pressure after AII)” value [7]?
**A.** Its value is 25 mmHg.

**Q.** And the “Change (increase in systolic blood pressure after AII), individual rat” value [7]?
**A.** The value was 25 mmHg.

**Q.** And the “% Inhibition (angiotensin blockage)” value [8]?
**A.** Its value is 63%.

**Q.** And the “Average Change (increase in systolic blood pressure after AII)” value [8]?
**A.** Its value is 17.5 mmHg.

**Q.** What about the “Change (increase in systolic blood pressure after AII), individual rat” value [8] of the same molecule?
**A.** The value was 20 mmHg and 15 mmHg.

**Q.** And the “% Inhibition (angiotensin blockage)” value [9]?
**A.** Its value is 42%.

**Q.** What about the “Average Change (increase in systolic blood pressure after AII)” value [9] of the same molecule?
**A.** Its value is 27.5 mmHg.

**Q.** And the “Change (increase in systolic blood pressure after AII), individual rat” value [9]?
**A.** The value was 30 mmHg and 25 mmHg.

**Q.** And the “% Inhibition (angiotensin blockage)” value [10]?
**A.** Its value is 37%.

**Q.** What about the “Average Change (increase in systolic blood pressure after AII)” value [10] of the same molecule?
**A.** Its value is 30 mmHg.

**Q.** And the “Change (increase in systolic blood pressure after AII), individual rat” value [10]?
**A.** Its value is 30 mmHg.

**Q.** And the “% Inhibition (angiotensin blockage)” value [11]?
**A.** Its value is 42%.

**Q.** And the “Average Change (increase in systolic blood pressure after AII)” value [11]?
**A.** Its value is 27.5 mmHg.

**Q.** And the “Change (increase in systolic blood pressure after AII), individual rat” value [11]?
**A.** Its value is 30 mmHg and 25 mmHg.

**Q.** And the “% Inhibition (angiotensin blockage)” value [12]?
**A.** Its value is 37%.

**Q.** What about the “Average Change (increase in systolic blood pressure after AII)” value [12] of the same molecule?
**A.** The value was 30 mmHg.

**Q.** What about the “Change (increase in systolic blood pressure after AII), individual rat” value [12] of the same molecule?
**A.** The value was 25 mmHg and 35 mmHg.

**Q.** And the “% Inhibition (angiotensin blockage)” value [13]?
**A.** The value was 47%.

**Q.** What about the “Average Change (increase in systolic blood pressure after AII)” value [13] of the same molecule?
**A.** The value was 25 mmHg.

**Q.** What about the “Change (increase in systolic blood pressure after AII), individual rat” value [13] of the same molecule?
**A.** Its value is 20 mmHg and 30 mmHg.

**Q.** What about the “% Inhibition (angiotensin blockage)” value [14] of the same molecule?
**A.** The value was 42%.

**Q.** And the “Average Change (increase in systolic blood pressure after AII)” value [14]?
**A.** Its value is 27.5 mmHg.

**Q.** What about the “Change (increase in systolic blood pressure after AII), individual rat” value [14] of the same molecule?
**A.** The value was 20 mmHg and 35 mmHg.

**Q.** And the “Response After AII (systolic blood pressure), individual rat” value (from here on “Response After AII”) (after AII 0.05 mcg/kg IV, 30 min post dose)?
**A.** The value was 240 mmHg and 225 mmHg.

**Q.** What about the “Response After AII” value (after AII 0.05 mcg/kg IV, 60 min post dose) of the same molecule?
**A.** The value was 230 mmHg.

**Q.** What about the “Response After AII” value (after AII 0.05 mcg/kg IV, 90 min post dose) of the same molecule?
**A.** The value was 215 mmHg and 225 mmHg.

**Q.** And the “Response After AII” value (after AII 0.05 mcg/kg IV, 120 min post dose)?
**A.** The value was 225 mmHg.

**Q.** What about the “Response After AII” value (after AII 0.05 mcg/kg IV, 180 min post dose) of the same molecule?
**A.** The value was 230 mmHg and 225 mmHg.

**Q.** And the “Response After AII” value (after AII 0.05 mcg/kg IV, 240 min post dose)?
**A.** Its value is 235 mmHg and 220 mmHg.

**Q.** And the “Response After AII” value (after AII 0.05 mcg/kg IV, 300 min post dose)?
**A.** Its value is 240 mmHg and 230 mmHg.

**Q.** What about the “Response After AII” value (after AII 0.1 mcg/kg IV, 30 min post dose) of the same molecule?
**A.** The value was 245 mmHg and 240 mmHg.

**Q.** What about the “Response After AII” value (after AII 0.1 mcg/kg IV, 60 min post dose) of the same molecule?
**A.** The value was 230 mmHg and 250 mmHg.

**Q.** And the “Response After AII” value (after AII 0.1 mcg/kg IV, 90 min post dose)?
**A.** Its value is 235 mmHg and 240 mmHg.

**Q.** What about the “Response After AII” value (after AII 0.1 mcg/kg IV, 120 min post dose) of the same molecule?
**A.** Its value is 230 mmHg and 235 mmHg.

**Q.** And the “Response After AII” value (after AII 0.1 mcg/kg IV, 180 min post dose)?
**A.** The value was 240 mmHg and 250 mmHg.

**Q.** And the “Response After AII” value (after AII 0.1 mcg/kg IV, 240 min post dose)?
**A.** The value was 245 mmHg and 240 mmHg.

**Q.** What about the “Response After AII” value (after AII 0.1 mcg/kg IV, 300 min post dose) of the same molecule?
**A.** Its value is 245 mmHg.

**Q.** And the “Control Before AII (systolic blood pressure), individual rat” value (from here on “Control Before AII”) (before AII 0.05 mcg/kg IV, 30 min post dose)?
**A.** Its value is 230 mmHg and 220 mmHg.

**Q.** What about the “Control Before AII” value (before AII 0.05 mcg/kg IV, 60 min post dose) of the same molecule?
**A.** Its value is 210 mmHg and 215 mmHg.

**Q.** What about the “Control Before AII” value (before AII 0.05 mcg/kg IV, 90 min post dose) of the same molecule?
**A.** Its value is 200 mmHg and 210 mmHg.

**Q.** What about the “Control Before AII” value (before AII 0.05 mcg/kg IV, 120 min post dose) of the same molecule?
**A.** Its value is 205 mmHg and 210 mmHg.

**Q.** And the “Control Before AII” value (before AII 0.05 mcg/kg IV, 180 min post dose)?
**A.** The value was 210 mmHg.

**Q.** What about the “Control Before AII” value (before AII 0.05 mcg/kg IV, 240 min post dose) of the same molecule?
**A.** The value was 210 mmHg and 205 mmHg.

**Q.** And the “Control Before AII” value (before AII 0.05 mcg/kg IV, 300 min post dose)?
**A.** The value was 215 mmHg and 205 mmHg.

**Q.** And the “Control Before AII” value (before AII 0.1 mcg/kg IV, 30 min post dose)?
**A.** The value was 225 mmHg.

**Q.** And the “Control Before AII” value (before AII 0.1 mcg/kg IV, 60 min post dose)?
**A.** Its value is 200 mmHg and 225 mmHg.

**Q.** What about the “Control Before AII” value (before AII 0.1 mcg/kg IV, 90 min post dose) of the same molecule?
**A.** Its value is 205 mmHg and 210 mmHg.

**Q.** And the “Control Before AII” value (before AII 0.1 mcg/kg IV, 120 min post dose)?
**A.** The value was 200 mmHg and 210 mmHg.

**Q.** And the “Control Before AII” value (before AII 0.1 mcg/kg IV, 180 min post dose)?
**A.** The value was 215 mmHg.

**Q.** What about the “Control Before AII” value (before AII 0.1 mcg/kg IV, 240 min post dose) of the same molecule?
**A.** The value was 225 mmHg and 210 mmHg.

**Q.** And the “Control Before AII” value (before AII 0.1 mcg/kg IV, 300 min post dose)?
**A.** The value was 225 mmHg and 210 mmHg.
